From ChEMBL document CHEMBL1201862, “PubChem BioAssay data set” (2004)
Activity calls are given as the source filed them.

Experiments:
Vero [1] = test: host cell cytotoxicity of antiviral hits, dose response, cytotoxicity control for West Nile virus antiviral project, secondary assay (AID 1650); type: functional; conditions: Chlorocebus sabaeus
Vero [2] = test: cells; type: functional; conditions: Chlorocebus sabaeus
[3] = control 3'UTR Renilla luciferase suppression, dose response, counter-screen for Shn3 inhibitor project, cell-based, Clone20-Shn3RL, cherry-picked (AID 624133); type: functional
[4] = Shn3 3'UTR reporter inhibitors, dose response, cell-based, Clone20 osteoblasts, firefly luciferase, cherry-picked (AID 624132); type: functional;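 note: firefly luciferase luminescence from reporter carrying the Shn3 3'UTR in osteoblasts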
Prothrombin = Prothrombin (Homo sapiens, UniProt P00734); test: Thrombin 1536 HTS Dose Response Confirmation. [Related pubchem assays: 1046 (Thrombin 1536 HTS; hits were confirmed in this assay)]; type: functional
Estrogen receptor beta [5] = biological target: T1, Estrogen receptor beta (Homo sapiens, UniProt Q92731);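 note: recombinant ER-beta bound to coactivator SRC1 peptide in presence of estradiol agonist; inhibitors block coactivator peptide binding and lower the FRET signal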
T1 sequence (Q92731 whole entry): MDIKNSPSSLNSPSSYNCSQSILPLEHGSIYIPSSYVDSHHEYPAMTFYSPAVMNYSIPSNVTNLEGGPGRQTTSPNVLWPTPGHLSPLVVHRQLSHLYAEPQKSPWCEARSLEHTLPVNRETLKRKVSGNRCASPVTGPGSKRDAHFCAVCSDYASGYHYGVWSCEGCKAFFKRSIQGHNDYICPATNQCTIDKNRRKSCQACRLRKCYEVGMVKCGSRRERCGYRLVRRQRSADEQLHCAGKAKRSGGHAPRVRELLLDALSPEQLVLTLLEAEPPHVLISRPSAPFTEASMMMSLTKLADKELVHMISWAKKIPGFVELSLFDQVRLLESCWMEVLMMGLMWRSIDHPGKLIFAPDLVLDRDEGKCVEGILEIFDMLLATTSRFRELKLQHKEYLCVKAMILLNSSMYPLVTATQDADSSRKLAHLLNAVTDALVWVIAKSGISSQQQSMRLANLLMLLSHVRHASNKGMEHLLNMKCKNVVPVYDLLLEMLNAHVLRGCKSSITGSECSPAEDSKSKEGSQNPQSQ

Estrogen receptor beta [6] = biological target: T1, Estrogen receptor beta; test: ERβ–SRC-3 coactivator interaction inhibitors, confirmation, orthogonal assay, biochemical, ELISA, streptavidin-HRP readout (AID 1060)
[7] = biological target: 5-hydroxytryptamine receptor 2A (Mus musculus, UniProt P35363); type: functional, cell-based;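 note: CHO-K1 cells with tagged receptor and beta-arrestin; agonist potency measured as compound-induced activation of the receptor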
5-hydroxytryptamine receptor 2A, sequence (P35363 whole entry): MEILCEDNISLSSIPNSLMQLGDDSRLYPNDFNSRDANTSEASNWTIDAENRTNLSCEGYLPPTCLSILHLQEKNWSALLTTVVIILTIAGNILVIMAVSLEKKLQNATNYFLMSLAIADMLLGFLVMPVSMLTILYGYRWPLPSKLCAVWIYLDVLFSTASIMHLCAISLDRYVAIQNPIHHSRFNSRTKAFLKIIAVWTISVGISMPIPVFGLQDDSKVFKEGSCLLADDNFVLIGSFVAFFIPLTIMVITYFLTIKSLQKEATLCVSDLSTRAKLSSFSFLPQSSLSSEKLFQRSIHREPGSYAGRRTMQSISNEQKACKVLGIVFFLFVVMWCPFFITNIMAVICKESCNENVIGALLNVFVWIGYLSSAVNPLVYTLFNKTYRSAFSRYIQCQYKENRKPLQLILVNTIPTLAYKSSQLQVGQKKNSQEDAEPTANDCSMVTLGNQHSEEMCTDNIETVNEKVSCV

Mu-type opioid receptor = Mu-type opioid receptor (Homo sapiens, UniProt P35372); type: functional, cell-based;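 note: U2OS cells with beta-arrestin recruitment to OPRM1 by beta-gal complementation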
Mu-type opioid receptor, sequence (P35372 whole entry): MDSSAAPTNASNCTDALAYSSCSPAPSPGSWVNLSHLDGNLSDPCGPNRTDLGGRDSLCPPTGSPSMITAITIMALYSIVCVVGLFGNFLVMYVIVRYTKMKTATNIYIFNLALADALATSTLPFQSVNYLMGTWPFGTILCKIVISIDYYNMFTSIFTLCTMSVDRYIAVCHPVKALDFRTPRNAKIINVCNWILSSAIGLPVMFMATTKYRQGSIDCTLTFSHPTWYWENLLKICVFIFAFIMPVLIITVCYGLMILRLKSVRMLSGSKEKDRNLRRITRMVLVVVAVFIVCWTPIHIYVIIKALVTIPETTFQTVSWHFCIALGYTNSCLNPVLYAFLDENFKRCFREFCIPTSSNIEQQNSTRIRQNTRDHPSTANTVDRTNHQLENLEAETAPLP

Cytochrome P450 3A4 = Cytochrome P450 3A4 (Homo sapiens, UniProt P08684); conditions: Potency;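 note: confirmatory qHTS run detecting inhibitors and substrates of CYP3A4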
Cytochrome P450 3A4, sequence (P08684 whole entry): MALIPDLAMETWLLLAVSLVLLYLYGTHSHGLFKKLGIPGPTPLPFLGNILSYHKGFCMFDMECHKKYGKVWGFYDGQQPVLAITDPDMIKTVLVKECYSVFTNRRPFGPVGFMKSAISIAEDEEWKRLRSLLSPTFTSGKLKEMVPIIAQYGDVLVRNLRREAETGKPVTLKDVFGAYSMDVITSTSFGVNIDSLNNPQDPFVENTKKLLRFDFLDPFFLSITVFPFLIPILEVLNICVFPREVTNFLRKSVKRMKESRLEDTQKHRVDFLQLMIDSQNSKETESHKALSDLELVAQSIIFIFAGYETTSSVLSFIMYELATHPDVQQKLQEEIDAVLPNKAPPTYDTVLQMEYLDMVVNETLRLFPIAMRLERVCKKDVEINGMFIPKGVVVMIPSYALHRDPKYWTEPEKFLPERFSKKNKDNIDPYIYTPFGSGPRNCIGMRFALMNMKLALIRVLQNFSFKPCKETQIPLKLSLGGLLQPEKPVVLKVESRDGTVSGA

Large T antigen = Large T antigen (Simian virus 40, UniProt P03070); type: functional, Betapolyomavirus macacae;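 note: Confirmatory-stage PubChem screen for compounds that inhibit SV40 T antigen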
Large T antigen, sequence (P03070 whole entry): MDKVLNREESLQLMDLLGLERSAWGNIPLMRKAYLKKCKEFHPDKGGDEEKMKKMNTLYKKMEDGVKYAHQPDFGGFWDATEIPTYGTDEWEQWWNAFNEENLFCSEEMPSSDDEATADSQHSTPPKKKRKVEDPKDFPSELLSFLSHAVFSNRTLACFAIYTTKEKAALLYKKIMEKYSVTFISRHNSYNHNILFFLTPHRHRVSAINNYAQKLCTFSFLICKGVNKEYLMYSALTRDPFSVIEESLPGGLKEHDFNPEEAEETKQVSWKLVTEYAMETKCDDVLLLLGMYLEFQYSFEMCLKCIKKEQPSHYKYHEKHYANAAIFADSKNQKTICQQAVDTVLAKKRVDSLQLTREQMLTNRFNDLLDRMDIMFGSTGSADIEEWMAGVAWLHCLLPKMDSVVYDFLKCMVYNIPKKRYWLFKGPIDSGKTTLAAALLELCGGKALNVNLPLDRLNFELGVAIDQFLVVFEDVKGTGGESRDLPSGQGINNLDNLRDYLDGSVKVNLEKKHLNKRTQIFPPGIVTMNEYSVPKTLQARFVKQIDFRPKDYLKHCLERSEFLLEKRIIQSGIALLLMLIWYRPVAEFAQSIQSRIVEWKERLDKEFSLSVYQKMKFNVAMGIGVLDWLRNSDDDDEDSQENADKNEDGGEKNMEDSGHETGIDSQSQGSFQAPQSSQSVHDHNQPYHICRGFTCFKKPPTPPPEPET

[8] = biological target: Induced myeloid leukemia cell differentiation protein Mcl-1 (Homo sapiens, UniProt Q07820); type: functional
Induced myeloid leukemia cell differentiation protein Mcl-1, sequence (Q07820 whole entry): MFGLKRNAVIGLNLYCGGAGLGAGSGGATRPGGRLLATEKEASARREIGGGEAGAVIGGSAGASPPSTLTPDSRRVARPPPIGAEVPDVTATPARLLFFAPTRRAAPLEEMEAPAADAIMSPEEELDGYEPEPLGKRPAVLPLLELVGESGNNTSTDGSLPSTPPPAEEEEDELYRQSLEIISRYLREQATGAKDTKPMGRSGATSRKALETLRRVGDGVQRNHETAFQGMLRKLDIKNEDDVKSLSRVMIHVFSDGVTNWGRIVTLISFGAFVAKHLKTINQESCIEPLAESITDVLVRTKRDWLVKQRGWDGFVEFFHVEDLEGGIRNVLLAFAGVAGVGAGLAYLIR

[9] = biological target: T2, Histone-lysine N-methyltransferase NSD2 (Homo sapiens, UniProt O96028); type: biochemical
T2 sequence (O96028 whole entry): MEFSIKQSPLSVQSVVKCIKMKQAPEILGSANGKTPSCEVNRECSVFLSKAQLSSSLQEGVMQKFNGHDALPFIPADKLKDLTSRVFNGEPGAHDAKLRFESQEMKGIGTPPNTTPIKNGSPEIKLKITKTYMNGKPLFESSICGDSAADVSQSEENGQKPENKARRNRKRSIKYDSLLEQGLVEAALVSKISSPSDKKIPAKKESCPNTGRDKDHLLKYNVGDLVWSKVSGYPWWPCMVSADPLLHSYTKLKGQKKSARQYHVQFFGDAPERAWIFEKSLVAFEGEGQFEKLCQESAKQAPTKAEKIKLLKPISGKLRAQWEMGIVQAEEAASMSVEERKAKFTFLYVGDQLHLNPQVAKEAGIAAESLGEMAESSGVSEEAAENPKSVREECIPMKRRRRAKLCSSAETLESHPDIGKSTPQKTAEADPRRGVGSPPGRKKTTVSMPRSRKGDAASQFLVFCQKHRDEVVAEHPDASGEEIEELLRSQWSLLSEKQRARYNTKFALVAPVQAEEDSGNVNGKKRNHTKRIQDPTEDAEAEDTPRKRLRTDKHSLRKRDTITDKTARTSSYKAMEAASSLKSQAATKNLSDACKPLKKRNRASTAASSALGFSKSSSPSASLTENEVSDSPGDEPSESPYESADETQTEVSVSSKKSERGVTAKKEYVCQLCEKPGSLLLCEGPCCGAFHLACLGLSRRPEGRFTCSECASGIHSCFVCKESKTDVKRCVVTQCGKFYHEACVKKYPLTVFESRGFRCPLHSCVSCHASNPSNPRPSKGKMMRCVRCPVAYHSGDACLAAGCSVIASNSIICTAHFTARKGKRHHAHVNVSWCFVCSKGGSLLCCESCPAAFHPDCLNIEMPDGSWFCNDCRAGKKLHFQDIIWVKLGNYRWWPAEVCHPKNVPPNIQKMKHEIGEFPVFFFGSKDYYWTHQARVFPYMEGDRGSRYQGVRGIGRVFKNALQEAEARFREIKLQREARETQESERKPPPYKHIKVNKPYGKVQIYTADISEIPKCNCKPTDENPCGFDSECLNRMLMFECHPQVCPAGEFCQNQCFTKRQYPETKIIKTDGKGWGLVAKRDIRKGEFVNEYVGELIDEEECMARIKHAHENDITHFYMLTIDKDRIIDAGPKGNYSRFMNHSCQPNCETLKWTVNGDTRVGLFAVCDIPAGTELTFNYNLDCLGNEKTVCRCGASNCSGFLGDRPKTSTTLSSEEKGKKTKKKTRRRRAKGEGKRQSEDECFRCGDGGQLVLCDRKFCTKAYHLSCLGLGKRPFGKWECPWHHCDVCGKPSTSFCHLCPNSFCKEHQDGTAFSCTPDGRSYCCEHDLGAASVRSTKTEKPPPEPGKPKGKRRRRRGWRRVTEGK

[10] = biological target: T3, Acyl-homoserine lactone acylase PvdQ (Pseudomonas aeruginosa (strain LESB58), UniProt Q9I194); test: P. aeruginosa PvdQ acylase inhibitors, dose response, biochemical, fluorescence, plate reader and imaging, cherry-picks (AID 493231)
T3 sequence (Q9I194 whole entry): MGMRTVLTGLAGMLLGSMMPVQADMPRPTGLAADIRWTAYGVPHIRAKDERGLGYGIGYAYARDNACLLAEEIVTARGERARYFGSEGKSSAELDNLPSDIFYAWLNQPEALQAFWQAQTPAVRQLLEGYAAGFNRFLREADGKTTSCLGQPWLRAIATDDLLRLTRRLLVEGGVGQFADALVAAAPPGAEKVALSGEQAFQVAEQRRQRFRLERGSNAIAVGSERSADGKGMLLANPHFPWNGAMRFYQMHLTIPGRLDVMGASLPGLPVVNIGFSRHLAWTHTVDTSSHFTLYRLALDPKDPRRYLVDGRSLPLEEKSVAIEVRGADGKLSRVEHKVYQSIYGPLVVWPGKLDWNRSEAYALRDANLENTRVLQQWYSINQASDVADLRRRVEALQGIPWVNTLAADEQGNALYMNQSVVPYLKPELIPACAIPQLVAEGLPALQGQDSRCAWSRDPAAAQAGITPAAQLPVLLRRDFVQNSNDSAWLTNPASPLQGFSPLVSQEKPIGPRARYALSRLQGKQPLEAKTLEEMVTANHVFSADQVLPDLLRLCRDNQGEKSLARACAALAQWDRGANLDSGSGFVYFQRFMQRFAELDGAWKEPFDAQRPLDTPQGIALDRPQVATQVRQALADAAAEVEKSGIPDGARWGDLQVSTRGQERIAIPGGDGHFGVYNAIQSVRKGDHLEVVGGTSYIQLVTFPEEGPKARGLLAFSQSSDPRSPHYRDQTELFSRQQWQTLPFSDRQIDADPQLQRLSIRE

[11] = biological target: Dual specificity tyrosine-phosphorylation-regulated kinase 1A (Rattus norvegicus, UniProt Q63470); type: biochemical, Homo sapiens
Fatty acid synthase = Fatty acid synthase (Homo sapiens, UniProt P49327); test: FAS thioesterase domain inhibitors, dose response, biochemical, kinetic fluorescence intensity (AID 624326); type: functional;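 note: rate of fluorescence rise from hydrolysis of a fluorogenic O-methyl fluorescein ester substrate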
Paired box protein Pax-8 = Paired box protein Pax-8 (Homo sapiens, UniProt Q06710); test: inhibitors of PAX8-driven TPO luciferase reporter, dose response, RMG-I cells, cherry-pick (AID 687027); type: functional, cell-based;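 note: luciferase reporter driven by Pax8 target thyroperoxidase promoter measured by SteadyGlo luminescence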
Paired box protein Pax-8, sequence (Q06710 whole entry): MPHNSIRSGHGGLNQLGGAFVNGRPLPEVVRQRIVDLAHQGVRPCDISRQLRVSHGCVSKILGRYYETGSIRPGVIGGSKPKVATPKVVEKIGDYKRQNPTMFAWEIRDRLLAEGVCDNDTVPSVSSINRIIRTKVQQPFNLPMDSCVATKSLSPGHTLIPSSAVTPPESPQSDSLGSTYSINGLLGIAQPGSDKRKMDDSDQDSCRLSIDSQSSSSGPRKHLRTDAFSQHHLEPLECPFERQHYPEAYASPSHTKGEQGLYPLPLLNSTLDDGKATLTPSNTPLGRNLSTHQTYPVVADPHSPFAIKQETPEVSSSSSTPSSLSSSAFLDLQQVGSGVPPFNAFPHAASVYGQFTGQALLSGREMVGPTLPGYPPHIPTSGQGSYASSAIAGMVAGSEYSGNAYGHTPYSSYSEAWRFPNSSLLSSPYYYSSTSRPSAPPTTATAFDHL

[12] = inhibitors of intracellular T. cruzi replication, confirmation, NIH3T3 host cells, beta-gal luminescence (AID 2044); type: functional, cell-based;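 note: intracellular parasites grown in NIH/3T3 mouse fibroblasts as host cells; luminescent beta-galactosidase reporter signal from transgenic T. cruzi replicating inside host cells; inhibitors lower the luminescence signal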
[13] = non-specific cell cytotoxicity, dose response, cytotoxicity control for PAX8 inhibitor project, plate reader, dry powder samples (AID 743021); type: functional, cell-based
[14] = cytotoxicity toward NIH3T3 fibroblasts, dose response, counter-screen, cell-based, ATP luminescence, mouse fibroblasts (AID 2010); type: functional;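 note: cells exposed to compound for about 90 hours before reading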
[15] = biological target: T4, Nuclear receptor subfamily 0 group B member 1 (Homo sapiens, UniProt P51843); type: functional, cell-based;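 note: HEK293T cells transfected with SF-1 and DAX-1 plus StAR promoter luciferase reporter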
T4 sequence (P51843 whole entry): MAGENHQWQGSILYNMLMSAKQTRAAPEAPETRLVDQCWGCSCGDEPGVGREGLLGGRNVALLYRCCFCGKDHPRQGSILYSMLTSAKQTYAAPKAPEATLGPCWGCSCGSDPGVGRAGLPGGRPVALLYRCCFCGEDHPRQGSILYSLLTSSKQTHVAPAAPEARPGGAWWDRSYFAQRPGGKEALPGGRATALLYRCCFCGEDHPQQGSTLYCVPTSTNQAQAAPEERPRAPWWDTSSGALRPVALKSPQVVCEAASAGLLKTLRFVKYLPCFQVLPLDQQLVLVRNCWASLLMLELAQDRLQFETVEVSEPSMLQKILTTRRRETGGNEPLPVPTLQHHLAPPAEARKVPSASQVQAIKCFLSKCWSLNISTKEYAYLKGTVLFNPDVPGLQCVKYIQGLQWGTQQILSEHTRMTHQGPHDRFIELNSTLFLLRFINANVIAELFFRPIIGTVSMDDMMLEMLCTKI

cells = type: functional, cell-based
[16] = cytotoxicity in OVCAR8 ovarian cancer cells, dose response, PAX8 project, cell-based, plate reader, dry powder samples (AID 743197); type: functional; conditions: OVCAR-8
[17] = IGROV1 ovarian cancer cell cytotoxicity, dose response, PAX8 inhibitor project, plate reader, dry powder samples (AID 743043); type: functional, cell-based; conditions: IGROV-1
[18] = NIH:OVCAR-3 ovarian cancer cell cytotoxicity, dose response, PAX8 inhibitor project, plate reader, dry powder samples (AID 743044); type: functional, cell-based
[19] = A2780 ovarian cancer cell cytotoxicity, dose response, cytotoxicity control, plate reader, dry powder samples (AID 743046); type: functional, cell-based
[20] = HepG2 cell cytotoxicity, dose response, cytotoxicity control, cherry-picked samples (AID 1159577); type: functional, cell-based
[21] = P. falciparum Dd2 growth inhibitors, dose response, SYBR Green, cherry-picked samples (AID 1159567); type: functional, cell-based

Cc1ccc(Cn2ccc(NC(=O)c3nn(C)cc3[N+](=O)[O-])n2)cc1
CC50 (Vero [1]): 11.6 µM (active) | CC50 (Vero [2]): 13.8 µM (active) | AC50 [3]: 27.3 µM (active) | AC50 [4]: 4.09 µM (active)

CC(Nc1nc(O)c2c(ncn2Cc2ccccc2)n1)C(=O)O (stereo not given)
IC50 (Prothrombin): > 50 µM (not active)

Cc1cc2n(c1)CCn1c(C)ccc1-2
IC50 (Estrogen receptor beta [5]): 3.91 µM (active) | IC50 (Estrogen receptor beta [6]): 3.06 µM (not active)

Clc1ccccc1CN1CCN(c2ccccc2)CC1
EC50 [7]: 0.553 µM (active) | EC50 (Mu-type opioid receptor): 92.5 µM (inactive)

COC(=O)NC(c1cccc(C)c1)C(C(C)=O)C(=O)OC (stereo not given)
AC50 (Cytochrome P450 3A4): 7.94 µM (inconclusive)

COc1ccc(S(=O)(=O)N2CCOCC2)cc1NC(=O)COC(=O)c1ccc(C)s1
IC50 (Prothrombin): 0.408 µM (active)

Cc1ccc(C2=NC(=O)/C(=C/c3cc(O)c(O)c(Br)c3)S2)cc1
IC50 (Large T antigen): 4.91 µM (active) | IC50 [8]: 0.767 µM (active) | AC50 [9]: 3.45 µM (active)

Cc1cc(-c2ccc(/N=N/c3cc(S(=O)(=O)O)c4ccccc4c3N)c(C)c2)ccc1/N=N/c1cc(S(=O)(=O)O)c2ccccc2c1N
AC50 (Cytochrome P450 3A4): 25.1 µM (inconclusive)

c1cnc2ccc(-c3ccc4ncccc4c3)cc2c1
AC50 [10]: 10.7 µM (active) | AC50 [11]: 0.189 µM (active)

COc1ccc(N(C(=O)c2ccco2)S(=O)(=O)c2cccc([N+](=O)[O-])c2)cc1
IC50 (Prothrombin): 2.18 µM (active)

Nc1n[nH]c(N2CCN(Cc3ccccc3)CC2)n1
EC50 [7]: 5.59 µM (active) | EC50 (Mu-type opioid receptor): 92.5 µM (inactive)

O=C(CC(c1ccccc1)c1ccccc1)NCC(O)c1ccc([N+](=O)[O-])cc1 (stereo not given)
IC50 (Fatty acid synthase): 13.5 µM (active)

COc1ccc(/C=C2\CN(Cc3ccccc3)C/C(=C\c3ccc(OC)cc3OC)C2=O)c(OC)c1
AC50 (Paired box protein Pax-8): 10.4 µM (active) | EC50 [12]: 1.83 µM (active) | AC50 [13]: 42.3 µM (active) | EC50 [14]: 9.01 µM (active)

Nc1nc(CN2CCN(c3ccccn3)CC2)nc(Nc2ccc(Cl)cc2)n1
EC50 [7]: 1.51 µM (active) | EC50 (Mu-type opioid receptor): 92.5 µM (inactive)

COc1cccc(/C=C/C(=O)NNC(=O)c2ccccc2)c1OC
IC50 [15]: > 67.6 µM (inactive) | IC50 (cells): > 67.6 µM (inactive)

OC[C@H]1O[C@H](c2nc(-c3nc(-c4cccs4)no3)cs2)C[C@@H]1O
IC50 [15]: > 67.5 µM (inactive) | IC50 (cells): > 67.5 µM (inactive)

O=C(c1ccc(C[S+]([O-])c2ccccc2Cl)o1)N1CCN(C2CCCCC2)CC1 (stereo not given)
IC50 [15]: > 67.5 µM (inactive) | IC50 (cells): > 67.5 µM (inactive)

CC(C)=CCC/C(C)=C/CN1C(=O)N(c2ccc(F)cc2)[C@H]2C[C@@H](c3ccccc3)[C@@H](C)[C@@H](C(=O)N3CCOCC3)C[C@H]21
AC50 (Paired box protein Pax-8): 2.66 µM (active) | AC50 [13]: 42 µM (active)

COc1ccc(S(=O)(=O)Nc2ccc3c(c2)C(=O)N([C@H](C)CO)C[C@H](C)[C@@H](CN(C)S(=O)(=O)c2ccc(F)cc2)OCCCC[C@H](C)O3)cc1
AC50 [16]: 22.9 µM (active) | AC50 (Paired box protein Pax-8): 3.96 µM (active) | AC50 [17]: 37.1 µM (active) | AC50 [18]: 12.5 µM (active) | AC50 [19]: 34.7 µM (active)

C[C@@H]1CCCCO[C@H](CN(C)S(=O)(=O)c2ccc(Cl)cc2)[C@@H](C)CN([C@@H](C)CO)C(=O)c2cc(NS(=O)(=O)c3ccc(F)cc3)ccc2O1
AC50 [16]: 62.8 µM (active) | AC50 (Paired box protein Pax-8): 7.67 µM (active) | AC50 [18]: 39 µM (active) | AC50 [19]: 11.5 µM (active)

COc1ccc(C#Cc2ccc([C@@H]3[C@H](CO)N4CCCCN(Cc5ccccc5F)C[C@@H]34)cc2)cc1
AC50 [20]: 9.38 µM (active) | AC50 [21]: 0.756 µM (active)

O=S(=O)(c1ccc(F)cc1)N1C[C@@H]2N[C@H](C1)[C@@H]2c1ccc(-c2ccc(F)cc2)cc1
AC50 [20]: 11 µM (active) | AC50 [21]: 7.37 µM (active)

O=C(Nc1cc(F)ccc1F)N1CCCCN2[C@@H](CO)[C@@H](c3ccc(-c4ccccc4)cc3)[C@@H]2C1
AC50 [20]: 9.99 µM (active) | AC50 [21]: 2.56 µM (active)
